According to US6458837B1, “Lipophilic diesters of chelating agents” (D-Pharm Ltd., priority 1997, dated 2002):
Marks after values point to notes of the source that are not given here.

What was measured:
Na/K-ATPase = Na/K-ATPase activity in mouse brain cortex homogenate; assay type: biochemical; details: 10^−7 to 10^2 μg/ml; mouse cerebral cortex homogenate
Description: Thus, the effects of BAPTA-diesters on Na/K-ATPase activity were examined in mouse brain homogenates treated with different concentrations of diethyl-BAPTA (DP-BAPTA 27, disodium salt). The BAPTA-diester tested concentrations ranged from 10^−7 to 10^2 μg/ml.
Preparation of mouse brain homoganate. Male CD-1 mice (10 to 21 days of age) were sacrificed by rapid decapitation. The skull was opened, the brains removed and cut into two. The cortex was isolated, put into sodium Ringer's buffer, washed three times with ice cold PBS and kept on ice. The brain tissue was homogenized using a Polytron at 14000 rpm for 4×30 seconds, on ice. The homogenization buffer contained: 250 mM Sucrose; 1 mM EGTA; 20 mM HEPES-Tris, pH 7.4, and the protease inhibitor PMSF.
The homogenate was span down in a Sorval refrigerated centrifuge at 27000 g for 30 minutes. The membrane fraction was collected and re-suspended in the homogenization buffer. […]
Na/K-ATPase assay. Na/K ATPase was measured as described before (Norby J, G. Coupled (1988) Assay of the Na^+—K^+ ATPase Activity. Methods in Enzymology. 156: 116-119) in the absence and presence of the Na/K-ATPase inhibitor, ouabain (3 mM). The Protein content was determined using the Bio Rad-Bradford assay as previously described (Bradford, M. (1978) Protein assay. Ann. Biochem. 72: 248-257.).

[1] = Octanol-saline partition coefficient (lipophilicity); assay type: physicochemical; details: for LogPc, octanol-saline partition coefficient, M = Ca++: calcium salt (BAPTA: dicalcium salt); for LogPc, octanol-saline partition coefficient, M = Ca++ / LogPc, octanol-saline partition coefficient, M = Na+: octanol/physiological saline, 26° C.; for LogPc, octanol-saline partition coefficient, M = Na+: sodium salt (BAPTA: tetrasodium salt)
Description: The lipophilicity values of several BAPTA diesters salts of the invention were studied by comparing the solubility of these compounds in organic versus aqueous solutions. Octanol and physiological saline were used, respectively, as the organic and aqueous solutions. The partition coefficient (Pc), i.e the distribution ratio between the organic and the aqueous phases were determined for several specific BAPTA diesters salts of the general formula I: [drawing 6]

[2] = Water/octanol distribution of Ca++ ions; assay type: physicochemical; details: 15 ml octanol / 15 ml saline pH 6.5; CaCl2 2×10^−3 M/L
Description: (§1) The hydrophilic/hydrophobic system used in this set of experiments consisted of 15 ml octanol and 15 ml saline pH=6.5. DP-BAPTA 99 was dissolved in the octanol solution before this phase was mixed with the saline. The DP-BAPTA concentration in the different experiments varied from 2.1×10^−6 to 5.5×10^−4 M/L in the experiments with Ca^2+ and from 5.4×10^−6 to 1.4×10^−3 M/L in the experiments with either Zn^2+ or Fe^2+, as indicated for each point in FIGS. 1A-C. The corresponding metal ions were added in the aqueous solution as chlorides at the following concentrations: FeCl2 2×10^−3 M/L, ZnCl2 10^−4 M/L, CaCl2 2×10^−3 M/L.
(§2) The octanol and buffer phases were mixed and vortexed for 1 hr at room temperature, followed by centrifugation at 4000 rpm, 10 min in order to separate the mixture to the two phases.
(§3) Different analytical procedures were employed for water and octanol samples: i) Water samples were analyzed versus ICP standards from Merk. Ca and Zn were determined in tested solutions by inductively coupled plasma atomic emission spectrometry. An ICP-AES, model “Spectroflame Modula E” from Spectro, Kleve, Germany was used, with a standard cross flow nebulizer and fixed EOP torch. The power level was 1.2 kW, coolant flow—15 l/min, auxilliary flow 0.5 l/min and nebulizer flow—0.5 l/min. ii) Octanol samples, 2-ml each, in a glass tube, were transferred to a heating block. […]

[3] = system: cultured neuronal cells of rat hippocampus; assay: Intracellular Ca++ concentration, Fluo-3/AM fluorescence; assay type: cell-based; details: 1 mM in 9 sec. pulse applied onto cultured hippocampal neurons
[4] = system: cultured hippocampal neurons; details: 0.1, 1.0 or 10.0 μg/ml perfused 5 minutes; 40 millisecond K+ pulses
Wistar rats = assay: Pilocarpine-induced epilepsy; details: i.p. one hour before pilocarpine 400 mg/kg
[5] = Water/octanol distribution of Zn++ ions; assay type: physicochemical; details: 15 ml octanol / 15 ml saline pH 6.5; ZnCl2 10^−4 M/L
Description: as §1, §2, §3

[6] = Water/octanol distribution of Fe++ ions; assay type: physicochemical; details: 15 ml octanol / 15 ml saline pH 6.5; FeCl2 2×10^−3 M/L
Description: as §1, §2, §3

Mongolian gerbils [7] = details: 5 μg/kg i.p. single dose immediately after 10 minutes ischemia; three days after ischemia
Mongolian gerbils [8] = details: for neuroprotective activity, sodium salt compared with calcium salt: global forebrain ischemia model; for neuronal damage (serum NSE activity 24 hours after ischemia): single dose 5μg/kg i.p. at onset of reperfusion (t=0) or 3 hours after (t=3), 10 min ischemia
Description: (§4) Animal. Male Mongolian gerbils 60-70 g (Charles River Laboratories, USA) were used for the study.
(§5) Induction of ischemia. Anesthesia was induced in gerbils with halothane (4%) in an anesthesia chamber (30% oxygen, 70% nitrous oxide) and was maintained with 1% halohtane in 30% oxygen and 70% nitrous oxide using face masks. For ischemia induction, both common carotid arteries were isolated via a neck midline incision and temporarily occluded for 10 or 20 min, as indicated, using arterial clips. During the entire period of cerebral ischemia, when the clips were in place, anesthesia was maintained only with 30% oxygen and 70% nitrous oxide, without halothane. Rectal temperature, monitored with a rectal probe, was maintained throughout ischemia at 37-37.5° C. by using a warming lamp and heating pad. Whenever applied, the tested BAPTA diesters were administered to the animals either parenterally via i.p. or orally, at the times and dosages as indicated in each particular experiment. Control animals were treated with the vehicle alone, i.e with 0.9% NaCl solution instead of the PABTA diester compound.
Statistics. Statistical analysis was carried out using the Student's t-test with Bonferroni corrections and p<0.05 as the level of significance.
Neuronal-specific enolase (NSE) assay. Blood samples were taken from the orbital sinus of gerbils 24 and 72 hours after 10 min period of cerebral ischemia. Blood samples were centrifuged for 5 min at 3000 rpm to obtain serum (the supernatant fraction). NSE activity in the serum was determined by radioimmunoassay using NSE kit (Pharmatope Ltd.,Israel).
The enzymatic activity of neuronal-specific enolase (NSE ) in the serum was used for evaluating the efficacy of the tested BAPTA-diesters in preventing neuronal damage. […] Thus, NSE may serve as a quantitative marker for the degree of neuronal damage.

Mongolian gerbils [9] = assay: Global forebrain ischemia, animal survival; assay type: in vivo; details: 10 μg/kg i.p. single dose at onset of reperfusion; 20 min ischemia
Description: as §4, §5

Structure (SMILES)	effect on Na/K-ATPase activity (Na/K-ATPase)	LogPc, octanol-saline partition coefficient, M = Ca++ [1]	LogPc, octanol-saline partition coefficient, M = Na+ [1]	drug concentration at which transfer of Ca++ ions from water to octanol is evident [2]	effect on intracellular calcium levels (Fluo-3 fluorescence) [3]	effect on potassium-induced increase in intracellular calcium ion concentration [4]	effect on generalized seizures (Wistar rats)	effect on limbic seizures (Wistar rats)	effect on mortality during the 3 hour period of status epilepticus (Wistar rats)	prevention of status epilepticus (Wistar rats)	drug concentration at which transfer of Zn++ ions from water to octanol is evident [5]	lipophilicity relative to the sodium salt of the parent molecule BAPTA ([1]; octanol versus aqueous phase)	drug concentration at which transfer of Fe++ ions from water to octanol is evident [6]	ischemia-induced neuronal damage in CA-2, CA-3 and dentate gyrus regions of the hippocampus (Mongolian gerbils [7])	neuroprotective activity, sodium salt compared with calcium salt (Mongolian gerbils [8])	serum NSE activity 24 h and 72 h after global cerebral ischemia (Mongolian gerbils [8]; oral, 0.5 mg/kg 4 hours before and at onset of reperfusion, or 0.5 mg/kg daily for 3 days after ischemia)	neuronal damage (serum NSE activity 24 hours after ischemia) (Mongolian gerbils [8])	extension of survival time (Mongolian gerbils [9])
CCOC(=O)CN(CC(=O)O)c1ccccc1OCCOc1ccccc1N(CC(=O)O)CC(=O)OCC [DP-BAPTA 27, diethyl-BAPTA]	dose dependent increase in Na/K-ATPase activity	–	–	–	–	–	–	–	–	–	–	–	–	–	–	–	–	–
O=C(O)CN(CC(=O)O)c1ccccc1OCCOc1ccccc1N(CC(=O)O)CC(=O)O [BAPTA, 1,2-bis(2 aminophenoxy)ethane-N,N,N′,N′-tetraacetic acid, reference compound]	–	−1.71^d)	−3.3^c)	does not	only insignificant increase in intracellular Ca^2+	–	–	–	–	–	–	–	–	–	–	–	–	–
CCCCCCCCOCCOC(=O)CN(CC(=O)O)c1ccccc1OCCOc1ccccc1N(CC(=O)O)CC(=O)OCCOCCCCCCCC [DP-BAPTA-99, BAPTA diester of octylethylene glycol]	–	1.10	0.80	250 to 500 µM	–	attenuates potassium-induced increase in intracellular calcium ion concentration	capable of preventing generalized seizures	no effect	reduces mortality	about half of the population	10 µM	10,000 fold	250 to 500 µM	significant neuroprotective effect	much pronounced neuroprotective activity comparing to the calcium salt	significant reduction in NSE activity	prevented neuronal damage	3 fold
CCCCCCCCOC(=O)CN(CC(=O)O)c1ccccc1OCCOc1ccccc1N(CC(=O)O)CC(=O)OCCCCCCCC [DP-BAPTA-60, Octyl diester of BAPTA]	–	0.79	0.85	–	–	–	–	–	–	–	–	–	–	effective in decreasing the ischemia-induced neuronal damage in the same regions, albeit to a lesser extent than DP-BAPTA 99	equally effective	–	prevented neuronal damage	2 fold
